Experimental data as given in ChEMBL document CHEMBL1201862, “PubChem BioAssay data set” (2004).
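Where inhibition never reached the appropriate level, the endpoint shown equals the highest concentration tested. Otherwise, values were interpolated linearly from a five-concentration, 48-hour dose response in 96-well plates. GI50 = concentration required for 50% inhibition of growth.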 Calls of active or inactive are those of the source. Rule as the data show it: active = GI50 up to about 1.1 µM and inactive = higher.

Assays:
Experiment in all cases: inhibition of tumour cell growth, NCI panel, 48 h
A549 = test system: A549
SF-539 = test system: SF-539
MOLT-4 = test system: MOLT-4
NCI/ADR-RES = test system: NCI/ADR-RES
SK-MEL-2 = test system: SK-MEL-2
M14 = test system: M14
A498 = test system: A498
SR = test system: SR
SK-MEL-28 = test system: SK-MEL-28
UACC-257 = test system: UACC-257
Malme-3M = test system: Malme-3M
SK-OV-3 = test system: SK-OV-3
COLO 205 = test system: COLO 205
CCRF-CEM = test system: CCRF-CEM
UACC-62 = test system: UACC-62
IGROV-1 = test system: IGROV-1
RPMI-8226 = test system: RPMI-8226
MDA-MB-435 = test system: MDA-MB-435
MDA-N = test system: MDA-N
NCI-H522 = test system: NCI-H522
K562 = test system: K562
NCI-H226 = test system: NCI-H226
T47D = test system: T47D
BT-549 = test system: BT-549
OVCAR-3 = test system: OVCAR-3
SF-268 = test system: SF-268
HCT-15 = test system: HCT-15
SK-MEL-5 = test system: SK-MEL-5
NCI-H23 = test system: NCI-H23
MCF7 = test system: MCF7
SN12C = test system: SN12C
UO-31 = test system: UO-31
786-0 = test system: 786-0
SF-295 = test system: SF-295
EKVX = test system: EKVX
TK-10 = test system: TK-10
HL-60 = test system: HL-60
RXF 393 = test system: RXF 393
OVCAR-4 = test system: OVCAR-4
PC-3 = test system: PC-3
KM12 = test system: KM12
HT-29 = test system: HT-29
HCC 2998 = test system: HCC 2998
OVCAR-5 = test system: OVCAR-5
OVCAR-8 = test system: OVCAR-8
SW-620 = test system: SW-620
DU-145 = test system: DU-145
CAKI-1 = test system: CAKI-1
SNB-75 = test system: SNB-75
LOX IMVI = test system: LOX IMVI
HCT-116 = test system: HCT-116
MDA-MB-231 = test system: MDA-MB-231
NCI-H460 = test system: NCI-H460
ACHN = test system: ACHN
HOP-92 = test system: HOP-92
SNB-19 = test system: SNB-19
U-251 = test system: U-251
Hs-578T = test system: Hs-578T
HOP-62 = test system: HOP-62

In the case of `Oc1ncc(Cl)c(O)n1`, the GI50 (A549) is reported as > 100 µM (inactive), the GI50 (SF-539) is reported as > 100 µM (inactive) and the GI50 (MOLT-4) is reported as > 100 µM (inactive). The GI50 (NCI/ADR-RES) was > 100 µM (inactive), the GI50 (SK-MEL-2) was > 100 µM (inactive) and the GI50 (M14) was > 100 µM (inactive). For the same compound, the GI50 (A498) was > 100 µM (inactive), the GI50 (SR) was > 100 µM (inactive) and the GI50 (SK-MEL-28) was > 100 µM (inactive). The GI50 (UACC-257) was > 100 µM (inactive), the GI50 (Malme-3M) was > 100 µM (inactive) and the GI50 (SK-OV-3) was > 100 µM (inactive). For the same compound, the GI50 (COLO 205) was > 100 µM (inactive), the GI50 (CCRF-CEM) was > 100 µM (inactive) and the GI50 (UACC-62) was > 100 µM (inactive). For the same compound, the GI50 (IGROV-1) was > 100 µM (inactive), the GI50 (RPMI-8226) was > 100 µM (inactive) and the GI50 (MDA-MB-435) was > 100 µM (inactive). For the same compound, the GI50 (MDA-N) was > 100 µM (inactive), the GI50 (NCI-H522) was > 100 µM (inactive) and the GI50 (K562) was > 100 µM (inactive). For the same compound, the GI50 (NCI-H226) was > 100 µM (inactive), the GI50 (T47D) was > 100 µM (inactive) and the GI50 (BT-549) was > 100 µM (inactive). The GI50 (OVCAR-3) was > 100 µM (inactive), the GI50 (SF-268) was > 100 µM (inactive) and the GI50 (HCT-15) was over 100 µM. For the same compound, the GI50 (SK-MEL-5) was > 100 µM (inactive), the GI50 (NCI-H23) was > 100 µM (inactive) and the GI50 (MCF7) was > 100 µM (inactive). The GI50 (SN12C) was > 100 µM (inactive), the GI50 (UO-31) was > 100 µM (inactive) and the GI50 (786-0) was > 100 µM (inactive). The GI50 (SF-295) was > 100 µM (inactive), the GI50 (EKVX) was > 100 µM (inactive) and the GI50 (TK-10) was > 100 µM (inactive). For the same compound, the GI50 (HL-60) was > 100 µM (inactive), the GI50 (RXF 393) was > 100 µM (inactive) and the GI50 (OVCAR-4) was > 100 µM (inactive). The GI50 (PC-3) was > 100 µM (inactive), the GI50 (KM12) was > 100 µM (inactive) and the GI50 (HT-29) was > 100 µM (inactive). The GI50 (HCC 2998) was > 100 µM (inactive), the GI50 (OVCAR-5) was > 100 µM (inactive) and the GI50 (OVCAR-8) was > 100 µM (inactive). For the same compound, the GI50 (SW-620) was > 100 µM (inactive), the GI50 (DU-145) was > 100 µM (inactive) and the GI50 (CAKI-1) was > 100 µM (inactive). For the same compound, the GI50 (SNB-75) was > 100 µM (inactive), the GI50 (LOX IMVI) was > 100 µM (inactive) and the GI50 (HCT-116) was > 100 µM (inactive). For the same compound, the GI50 (MDA-MB-231) was > 100 µM (inactive), the GI50 (NCI-H460) was > 100 µM (inactive) and the GI50 (ACHN) was > 100 µM (inactive). The GI50 (HOP-92) was > 100 µM (inactive), the GI50 (SNB-19) was > 100 µM (inactive) and the GI50 (U-251) was > 100 µM (inactive). The GI50 (Hs-578T) was > 100 µM (inactive).
In the case of `CCOC(=O)NC(Nc1cccc(C(F)(F)F)c1)(C(F)(F)F)C(F)(F)F`, the GI50 (A549) is reported as > 100 µM (inactive), the GI50 (SF-539) is reported as > 100 µM (inactive) and the GI50 (MOLT-4) is reported as > 100 µM (inactive). The GI50 (NCI/ADR-RES) was > 100 µM (inactive), the GI50 (SK-MEL-2) was > 100 µM (inactive) and the GI50 (M14) was > 100 µM (inactive). The GI50 (A498) was > 100 µM (inactive), the GI50 (SR) was > 100 µM (inactive) and the GI50 (SK-MEL-28) was > 100 µM (inactive). For the same compound, the GI50 (UACC-257) was > 100 µM (inactive), the GI50 (Malme-3M) was > 100 µM (inactive) and the GI50 (SK-OV-3) was > 100 µM (inactive). For the same compound, the GI50 (COLO 205) was > 100 µM (inactive), the GI50 (CCRF-CEM) was > 100 µM (inactive) and the GI50 (UACC-62) was > 100 µM (inactive). The GI50 (HOP-62) was > 100 µM (inactive), the GI50 (IGROV-1) was > 100 µM (inactive) and the GI50 (RPMI-8226) was > 100 µM (inactive). For the same compound, the GI50 (MDA-MB-435) was > 100 µM (inactive), the GI50 (MDA-N) was > 100 µM (inactive) and the GI50 (NCI-H522) was > 100 µM (inactive). For the same compound, the GI50 (K562) was > 100 µM (inactive), the GI50 (NCI-H226) was > 100 µM (inactive) and the GI50 (T47D) was > 100 µM (inactive). The GI50 (BT-549) was > 100 µM (inactive), the GI50 (OVCAR-3) was > 100 µM (inactive) and the GI50 (SF-268) was > 100 µM (inactive). For the same compound, the GI50 (HCT-15) was over 100 µM, the GI50 (SK-MEL-5) was > 100 µM (inactive) and the GI50 (NCI-H23) was > 100 µM (inactive). The GI50 (MCF7) was > 100 µM (inactive), the GI50 (SN12C) was > 100 µM (inactive) and the GI50 (UO-31) was 93.8 µM (inactive). The GI50 (786-0) was > 100 µM (inactive), the GI50 (SF-295) was > 100 µM (inactive) and the GI50 (EKVX) was > 100 µM (inactive). The GI50 (TK-10) was > 100 µM (inactive), the GI50 (HL-60) was > 100 µM (inactive) and the GI50 (RXF 393) was > 100 µM (inactive). For the same compound, the GI50 (PC-3) was > 100 µM (inactive), the GI50 (KM12) was > 100 µM (inactive) and the GI50 (HT-29) was > 100 µM (inactive). For the same compound, the GI50 (HCC 2998) was > 100 µM (inactive), the GI50 (OVCAR-5) was > 100 µM (inactive) and the GI50 (OVCAR-8) was > 100 µM (inactive). The GI50 (SW-620) was > 100 µM (inactive), the GI50 (DU-145) was > 100 µM (inactive) and the GI50 (CAKI-1) was > 100 µM (inactive). For the same compound, the GI50 (SNB-75) was > 100 µM (inactive), the GI50 (LOX IMVI) was > 100 µM (inactive) and the GI50 (HCT-116) was > 100 µM (inactive). The GI50 (MDA-MB-231) was > 100 µM (inactive), the GI50 (NCI-H460) was > 100 µM (inactive) and the GI50 (ACHN) was > 100 µM (inactive). For the same compound, the GI50 (HOP-92) was > 100 µM (inactive), the GI50 (SNB-19) was > 100 µM (inactive) and the GI50 (U-251) was > 100 µM (inactive). The GI50 (Hs-578T) was > 100 µM (inactive).
